Patent US20250002458A1, “SALT FORMS OF […]” (UNICYCIVE THERAPEUTICS INC., priority 2023, published 2025)
Structures can show the parent of a compound that is named as a salt.

Assays:
[1] = Stability of select salts of Compound 1 at 5, 25 and 40° C. over 6 months, purity by HPLC; assay type: physicochemical
Protocol: A description of the salt and the purity as determined by HPLC are provided initially and at the 1st, 2nd, 3rd, and 6th month for each salt.
Preparation of test solution: About 50.0 mg of test sample was weighed into a 25 mL of volumetric flask and diluent (10 mL) was added. The mixture was sonicated to dissolve sample and diluted up to mark with diluent and mixed well.

[2] = Photostability of iodide and nitrate salts (control, UV, visible); assay type: physicochemical; settings: for Total impurities: photostability
Protocol: The photostability of Compound 1 iodide salt and Compound 1 nitrate salt were tested.
The photostability of Compound 2 iodide salt and Compound 2 nitrate salt were tested.

Work on `C[C@H](NC(=O)OC[n+]1cccc(C(=O)NCCO[N+](=O)[O-])c1)C1CCCCC1` [Compound 1 4-Bromobesylate Salt] yielded a Purity ([1]; 5° C., 1st Month) of 91.0, a Purity ([1]; 5° C., 2nd Month) of 93.1 and a Purity ([1]; 5° C., 3rd Month) of 89.6. It also gave a Purity ([1]; 5° C., 6th Month) of 86.6, a Purity ([1]; 5° C., Initial) of 98.4 and a Purity ([1]; 25° C., 1st Month) of 89.0. It also gave a Purity ([1]; 25° C., 2nd Month) of 84.2, a Purity ([1]; 25° C., 3rd Month) of 76.8 and a Purity ([1]; 25° C., 6th Month) of 67.6. For the same compound, the Purity ([1]; 25° C., Initial) was 98.4.
In the case of `C[C@H](NC(=O)OC[n+]1cccc(C(=O)NCCO[N+](=O)[O-])c1)C1CCCCC1` [Compound 1 Sulphate Salt], the Purity ([1]; 5° C., 1st Month) is reported as 90.7, the Purity ([1]; 5° C., 2nd Month) is reported as 87.9 and the Purity ([1]; 5° C., 3rd Month) is reported as 91.1. The Purity ([1]; 5° C., 6th Month) was 90.9, the Purity ([1]; 5° C., Initial) was 94.7 and the Purity ([1]; 25° C., 1st Month) was 90.0. It also gave a Purity ([1]; 25° C., 2nd Month) of 56.9, a Purity ([1]; 25° C., 3rd Month) of 33.7 and a Purity ([1]; 25° C., 6th Month) of 23.5. For the same compound, the Purity ([1]; 25° C., Initial) was 94.7, the Purity ([1]; 40° C., 1st Month) was 75.6 and the Purity ([1]; 40° C., 2nd Month) was 8.3. It also gave a Purity ([1]; 40° C., 3rd Month) of 0.9, a Purity ([1]; 40° C., 6th Month) of 1.5 and a Purity ([1]; 40° C., Initial) of 94.7.
With `C[C@H](NC(=O)OC[n+]1cccc(C(=O)NCCO[N+](=O)[O-])c1)C1CCCCC1` [Compound 1 Esylate Salt] the Purity ([1]; 5° C., 1st Month) was 92.7, the Purity ([1]; 5° C., 2nd Month) was 92.3 and the Purity ([1]; 5° C., 3rd Month) was 91.5. It also gave a Purity ([1]; 5° C., 6th Month) of 89.6, a Purity ([1]; 5° C., Initial) of 95.4 and a Purity ([1]; 25° C., 1st Month) of 91.4. For the same compound, the Purity ([1]; 25° C., 2nd Month) was 84.4, the Purity ([1]; 25° C., 3rd Month) was 73.9 and the Purity ([1]; 25° C., 6th Month) was 58.7. The Purity ([1]; 25° C., Initial) was 95.4.
With `C[C@H](NC(=O)OC[n+]1cccc(C(=O)NCCO[N+](=O)[O-])c1)C1CCCCC1` [Compound 1 nitrate salt] the “Total impurities compared with the iodide salt” value ([2]; exposed to both UV and visible light) was “less than the impurities in Compound 1 iodide salt”, the Total impurities ([2]; UV) was 0.21 and the Total impurities ([2]; Visible) was 0.16. It also gave a Total impurities ([2]; control sample) of 0.06.
`C[C@H](NC(=O)OC[n+]1cccc(C(=O)NCCO[N+](=O)[O-])c1)C1CCCCC1` [Compound 1 Besylate Salt] gave a Purity ([1]; 5° C., 1st Month) of 88.8, a Purity ([1]; 5° C., 2nd Month) of 88.6 and a Purity ([1]; 5° C., 3rd Month) of 87.5. For the same compound, the Purity ([1]; 5° C., 6th Month) was 86.9, the Purity ([1]; 5° C., Initial) was 96.6 and the Purity ([1]; 25° C., 1st Month) was 87.1. It also gave a Purity ([1]; 25° C., 2nd Month) of 79.3, a Purity ([1]; 25° C., 3rd Month) of 66.7 and a Purity ([1]; 25° C., 6th Month) of 51.2. The Purity ([1]; 25° C., Initial) was 96.6.
`C[C@H](NC(=O)OC[n+]1cccc(C(=O)NCCO[N+](=O)[O-])c1)C1CCCCC1` [Compound 1 4-Nitrobesylate Salt] gave a Purity ([1]; 5° C., 1st Month) of 98.1, a Purity ([1]; 5° C., 2nd Month) of 98.1 and a Purity ([1]; 5° C., 3rd Month) of 97.8. It also gave a Purity ([1]; 5° C., 6th Month) of 97.9, a Purity ([1]; 5° C., Initial) of 98.1 and a Purity ([1]; 25° C., 1st Month) of 97.2. For the same compound, the Purity ([1]; 25° C., 2nd Month) was 93.1, the Purity ([1]; 25° C., 3rd Month) was 86.8 and the Purity ([1]; 25° C., 6th Month) was 80.3. It also gave a Purity ([1]; 25° C., Initial) of 98.1.
In the case of `C[C@H](NC(=O)OC[n+]1cccc(C(=O)NCCO[N+](=O)[O-])c1)C1CCCCC1` [Compound 1 Perchlorate Salt], the Purity ([1]; 5° C., 1st Month) is reported as 96.3, the Purity ([1]; 5° C., 2nd Month) is reported as 93.0 and the Purity ([1]; 5° C., 3rd Month) is reported as 95.7. For the same compound, the Purity ([1]; 5° C., 6th Month) was 94.8, the Purity ([1]; 5° C., Initial) was 97.6 and the Purity ([1]; 25° C., 1st Month) was 95.4. The Purity ([1]; 25° C., 2nd Month) was 89.4, the Purity ([1]; 25° C., 3rd Month) was 84.9 and the Purity ([1]; 25° C., 6th Month) was 74.8. The Purity ([1]; 25° C., Initial) was 97.6.
Work on `C[C@H](NC(=O)OC[n+]1cccc(C(=O)NCCO[N+](=O)[O-])c1)C1CCCCC1` [Compound 1 Triflate Salt] yielded a Purity ([1]; 5° C., 1st Month) of 95.0, a Purity ([1]; 5° C., 2nd Month) of 95.0 and a Purity ([1]; 5° C., 3rd Month) of 94.8. It also gave a Purity ([1]; 5° C., 6th Month) of 96.1, a Purity ([1]; 5° C., Initial) of 96.6 and a Purity ([1]; 25° C., 1st Month) of 94.4. The Purity ([1]; 25° C., 2nd Month) was 91.1, the Purity ([1]; 25° C., 3rd Month) was 85.8 and the Purity ([1]; 25° C., 6th Month) was 78.5. It also gave a Purity ([1]; 25° C., Initial) of 96.6.
With `C[C@H](NC(=O)OC[n+]1cccc(C(=O)NCCO[N+](=O)[O-])c1)C1CCCCC1` [Compound 1 Trifluoroacetate Salt] the Purity ([1]; 5° C., 1st Month) was 97.2, the Purity ([1]; 5° C., 2nd Month) was 96.6 and the Purity ([1]; 5° C., 3rd Month) was 97.0. The Purity ([1]; 5° C., 6th Month) was 97.2, the Purity ([1]; 5° C., Initial) was 98.6 and the Purity ([1]; 25° C., 1st Month) was 96.5. It also gave a Purity ([1]; 25° C., 2nd Month) of 94.6, a Purity ([1]; 25° C., 3rd Month) of 92.2 and a Purity ([1]; 25° C., 6th Month) of 85.9. For the same compound, the Purity ([1]; 25° C., Initial) was 98.6.
For `C[C@H](NC(=O)OC[n+]1cccc(C(=O)NCCO[N+](=O)[O-])c1)C1CCCCC1` [Compound 1 iodide salt], the Total impurities ([2]; UV) was 0.27, the Total impurities ([2]; Visible) was 0.60 and the Total impurities ([2]; control sample) was 0.07.
Compound `C[C@H](NC(=O)OC[n+]1cccc(C(=O)NCCO[N+](=O)[O-])c1)C1CCCCC1` [Compound 1 Phosphate Salt] has a Purity ([1]; 5° C., 1st Month) of 95.8, a Purity ([1]; 5° C., 2nd Month) of 93.8 and a Purity ([1]; 5° C., 3rd Month) of 94.6. It also gave a Purity ([1]; 5° C., 6th Month) of 94.5, a Purity ([1]; 5° C., Initial) of 96.5 and a Purity ([1]; 25° C., 1st Month) of 93.3. It also gave a Purity ([1]; 25° C., 2nd Month) of 83.7, a Purity ([1]; 25° C., 3rd Month) of 78.2 and a Purity ([1]; 25° C., 6th Month) of 69.4. The Purity ([1]; 25° C., Initial) was 96.5, the Purity ([1]; 40° C., 1st Month) was 91.4 and the Purity ([1]; 40° C., 2nd Month) was 63.1. The Purity ([1]; 40° C., 3rd Month) was 50.9, the Purity ([1]; 40° C., 6th Month) was 50.5 and the Purity ([1]; 40° C., Initial) was 96.5.
